The values below come from US20100075894A1, “REDUCING ER STRESS IN THE TREATMENT OF OBESITY AND DIABETES” (HARVARD UNIVERSITY, priority 2004, published 2010).

The test has as its system mouse embryonic fibroblasts (MEF). The test is described as follows: tunicamycin ER stress response in MEFs (XBP-1 models). Format: cell-based. As for the experimental part:
ER stress responses in XBP-1s overexpressing cells, XBP-1^−/− cells and their controls. (A) Induction of XBP-1s expression upon removal of doxycycline in mouse embryonic fibroblasts (MEF). (B) Southern blot analysis of XBP-1^−/− MEF cells and their WT controls for the wild type (9.4 kb) and targeted (6.5 kb) alleles. (C) PERK phosphorylation (p-PERK) and JNK activity in the XBP-1s overexpressing cells and their control cells (−Dox and +Dox, respectively) upon tunicamycin treatment (Tun, 2 μg/ml). (D) PERK phosphorylation and JNK activity upon low dose tunicamycin treatment (Tun, 0.5 μg/ml) in XBP-1^−/− MEF cells and their WT controls. (E) IRS-1 Ser307 phosphorylation upon tunicamycin treatment (Tun, 2 μg/ml) in the XBP-1s overexpressing and the control cells (−Dox and +Dox, respectively), detected using immunoprecipitation (IP) of IRS-1 followed by immunoblotting (IB) with an IRS-1 phosphoserine 307-specific antibody. […] The ratio of IRS-1 tyrosine phosphorylation to total IRS-1 level was summarized from independent experiments and was presented in the graph. (G) IRS-1 Ser307 phosphorylation upon tunicamycin treatment (Tun, 0.5 μg/ml) in XBP-1^−/− cells and WT controls was detected as described in […]. […] (H) Insulin-stimulated tyrosine phosphorylation of IRS-1 in XBP-1^−/− and WT control cells with or without tunicamycin treatment (Tun, 0.5 μg/ml). The ratio of IRS-1 tyrosine phosphorylation to total IRS-1 level was summarized from independent experiments and presented in the graph. All graphs show mean±SEM from at least 2 independent experiments and statistically significance from the controls is indicated by * with p<0.005.
The transcription factor XBP-1 is a bZIP protein. The spliced or processed form of XBP-1 (XBP-1s) is a key factor in the transcriptional regulation of molecular chaperones and enhances the compensatory UPR (Calfon et al., Nature 415, 92 (2002); Shen et al., Cell 107:893 (2001); Yoshida et al., Cell 107:881 (2001); Lee et al., Mol. Cell Biol. 23:7448 (2003); each of which is incorporated herein by reference). We therefore reasoned that modulation of XBP-1s levels in cells should alter insulin action via its potential impact on the magnitude of the ER stress responses. To test this possibility, we established XBP-1 gain- and loss-of-function cellular models. First, we established an inducible gene expression system where exogenous XBP-1s is expressed only in the absence of tetracycline/doxycycline (FIG. 13A). In parallel, we also studied MEFs derived from XBP-1^−/− mouse embryos (Lee et al., Mol. Cell Biol. 23, 7448 (2003); A. M. Reimold et al., Genes Dev. 14, 152 (2000); Reimold et al., Nature 412, 300 (2001); each of which is incorporated herein by reference) (FIG. 13B). […] Upon induction of XBP-1s expression, there was a dramatic reduction in both PERK phosphorylation and JNK activation following tunicamycin treatment (FIG. 13C). […] Thus alterations in the levels of cellular XBP-1s protein result in alterations in the ER stress response.
Cells: Rat Fao liver cells were cultured with RPMI 1640 (Gibco, Grand Island, N.Y.) containing 10% fetal bovine serum (FBS). At 70-80% confluency, cells were serum depleted for 12 hours before starting the experiments. Reagents including tunicamycin, thapsigargin, and JNK inhibitors were gently added to the culture dishes in the incubator to prevent any environmental stress. JNK inhibitors were added 1 hour before tunicamycin/thapsigargin treatment. The XBP-1^−/− mouse embryonic fibroblasts (MEF) (A. H. Lee, N. N. Iwakoshi, L. H. Glimcher, Mol. Cell. Biol. 23:7448 (2003); incorporated herein by reference), IRE-1α^−/− MEF cells (kindly provided by Dr. David Ron, New York University School of Medicine), and their wild type controls were cultured in Dulbecco's Modified Eagle Medium (DMEM) (Gibco, Grand Island, N.Y.) containing 10% FBS. A similar protocol was followed for experiments in MEF cells, except that the cells were serum depleted for only 6 hours. […]

[1] abbreviates: fibroblasts without exogenous XBP-1s expression, 2 μg/ml.

Regarding tunicamycin, the ER stress result (WT cells, low dose 0.5 μg/ml) is reported as “failed to stimulate significant ER stress”. In addition, the ER stress response entry (XBP-1−/− MEFs, low dose 0.5 μg/ml) is recorded as “strong ER stress response”. Moreover, under setting [1], the PERK phosphorylation result is given as “strong PERK phosphorylation”; the “PERK phosphorylation, peak” value lay within 3 to 4 h; the “PERK phosphorylation, start” value was found to be 30 min; the “activation of JNK” value is “rapid and robust activation”.
